# In US10870638B2, “Pyridazinone compound or its salt, and herbicide containing it” (ISHIHARA SANGYO KAISHA, LTD., priority 2016, dated 2020):
# Columns and labels:
# Format in all cases: in vivo
# Conditions in all cases: 14th day after application
# [1] = test system: barnyardgrass (Echinochloa crus-qalli L.); experiment: Test Example 1: foliar treatment, growth inhibition rate on 14th day
# In short: (§1)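 Using a small sprayer, formulated compound in water (0.1 vol % surfactant, 1,000 L/ha) was applied to seedlings grown from seed in upland soil. Fourteen days on, growth state was observed and expressed as percent inhibition from 0 to 100.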
# [2] = test system: redroot pigweed (Amaranthus retroflexus L.); experiment: as above
# In short: as §1
# corn (Zea mays L.) [3] = experiment: as above
# In short: as §1
# [4] = test system: crabgrass (Digitaria sanquinalis L.); experiment: as above
# In short: as §1
# [5] = test system: italian ryegrass (Lolium multiflorum Lam.); experiment: as above
# In short: as §1
# [6] = test system: soybean (Glycine max Merr.); experiment: as above
# In short: (§2)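 Sow seeds in upland soil pots; at target leaf stage (wild oat 0.4–1.2, rice 0.2–2.7, foxtail 0.5–3.2, soybean primary leaf) spray formulated compound in water, 1,000 L/ha, 0.1 vol % surfactant. Score inhibition visually at day 14, 0–100%.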
# [7] = test system: wheat (Triticum aestivum L.); experiment: as above
# In short: as §1
# [8] = test system: green foxtail (Setaria viridis L.); experiment: as above
# In short: as §2
# rice (Oryza sativa L.) [9] = experiment: as above
# In short: as §2
# [10] = test system: wild oat (Avena fatua L.); experiment: as above
# In short: as §2
# [11] = test system: prickly sida (Sida spinosa L.); experiment: Test Example 2: soil application on the day after sowing, growth inhibition rate on 14th day
# In short: (§3)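 Field soil in 1/300,000 ha pots was sown, and the next day compounds formulated as wettable powders or emulsifiable concentrates were diluted in water (1,000 L/ha) and soil-sprayed at the prescribed active ingredient rates. Growth inhibition was scored visually 14 days later, 0 (untreated) to 100 (complete kill).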
# [12] = test system: barnyardgrass (Echinochloa crus-qalli L.); experiment: as above
# In short: as §3
# [13] = test system: redroot pigweed (Amaranthus retroflexus L.); experiment: as above
# In short: as §3
# corn (Zea mays L.) [14] = experiment: as above
# In short: as §3
# [15] = test system: crabgrass (Digitaris sanquinalis L.); experiment: as above
# In short: as §3
# [16] = test system: soybean (Glycine max Merr.); experiment: as above
# In short: as §3
# [17] = test system: wheat (Triticum aestivum L.); experiment: as above
# In short: as §3
# [18] = test system: green foxtail (Setaria viridis L.); experiment: as above
# In short: as §3
# [19] = test system: velvetleaf (Abutilon theophrasti MEDIC.); experiment: as above
# In short: as §3
# rice (Oryza sativa L.) [20] = experiment: as above
# In short: as §3
# [21] = active ingredient amount 500 g/ha
# [22] = active ingredient amount 31 g/ha
SMILES,"Growth inhibition rate (%) Barnyardgrass [1, 22] [%]","Growth inhibition rate (%) Redroot pigweed [2, 22] [%]",Growth inhibition rate (%) Corn (corn (Zea mays L.) [3]; [22]) [%],"Growth inhibition rate (%) Crabgrass [4, 22] [%]","Growth inhibition rate (%) Italian ryegrass [5, 22] [%]","Growth inhibition rate (%) Soybean [6, 22] [%]","Growth inhibition rate (%) Wheat [7, 22] [%]","Growth inhibition rate (%) Green foxtail [8, 22] [%]",Growth inhibition rate (%) Rice (rice (Oryza sativa L.) [9]; [22]) [%],"Growth inhibition rate (%) Wild oat [10, 22] [%]","Growth inhibition rate (%) Prickly sida [11, 22] [%]","Growth inhibition rate (%) Barnyardgrass [12, 22] [%]","Growth inhibition rate (%) Redroot pigweed [13, 22] [%]",Growth inhibition rate (%) Corn (corn (Zea mays L.) [14]; [22]) [%],"Growth inhibition rate (%) Crabgrass [15, 22] [%]","Growth inhibition rate (%) Soybean [16, 22] [%]","Growth inhibition rate (%) Wheat [17, 22] [%]","Growth inhibition rate (%) Green foxtail [18, 22] [%]","Growth inhibition rate (%) Velvetleaf [19, 22] [%]",Growth inhibition rate (%) Rice (rice (Oryza sativa L.) [20]; [22]) [%],other results
Cc1ccc(Oc2ccc3ccccc3n2)cc1-c1c(O)c(C)nn(C)c1=O [Compound 2-108],,,,,,,,,,,,,,,,,,,,,"Growth inhibition rate (%) Barnyardgrass [1, 21]: 100%; Growth inhibition rate (%) Redroot pigweed [2, 21]: 0%; Growth inhibition rate (%) Corn (corn (Zea mays L.) [3]; [21]): 10%; Growth inhibition rate (%) Crabgrass [4, 21]: 85%; Growth inhibition rate (%) Italian ryegrass [5, 21]: 10%; Growth inhibition rate (%) Soybean [6, 21]: 20%; Growth inhibition rate (%) Wheat [7, 21]: 50%; Growth inhibition rate (%) Green foxtail [8, 21]: 95%; Growth inhibition rate (%) Rice (rice (Oryza sativa L.) [9]; [21]): 93%; Growth inhibition rate (%) Wild oat [10, 21]: 50%; Growth inhibition rate (%) Prickly sida [11, 21]: 0%; Growth inhibition rate (%) Barnyardgrass [12, 21]: 100%; Growth inhibition rate (%) Redroot pigweed [13, 21]: 0%; Growth inhibition rate (%) Corn (corn (Zea mays L.) [14]; [21]): 0%; Growth inhibition rate (%) Crabgrass [15, 21]: 98%; Growth inhibition rate (%) Soybean [16, 21]: 0%; Growth inhibition rate (%) Wheat [17, 21]: 0%; Growth inhibition rate (%) Green foxtail [18, 21]: 93%; Growth inhibition rate (%) Velvetleaf [19, 21]: 0%; Growth inhibition rate (%) Rice (rice (Oryza sativa L.) [20]; [21]): 93%"
Cc1ccc(Oc2cnc3ccccc3c2)cc1-c1c(O)c(C)nn(C)c1=O [Compound 2-112],,,,,,,,,,,,,,,,,,,,,"Growth inhibition rate (%) Barnyardgrass [1, 21]: 99%; Growth inhibition rate (%) Redroot pigweed [2, 21]: 20%; Growth inhibition rate (%) Corn (corn (Zea mays L.) [3]; [21]): 93%; Growth inhibition rate (%) Crabgrass [4, 21]: 98%; Growth inhibition rate (%) Italian ryegrass [5, 21]: 90%; Growth inhibition rate (%) Soybean [6, 21]: 0%; Growth inhibition rate (%) Wheat [7, 21]: 80%; Growth inhibition rate (%) Green foxtail [8, 21]: 100%; Growth inhibition rate (%) Rice (rice (Oryza sativa L.) [9]; [21]): 93%; Growth inhibition rate (%) Wild oat [10, 21]: 90%; Growth inhibition rate (%) Prickly sida [11, 21]: 0%; Growth inhibition rate (%) Barnyardgrass [12, 21]: 100%; Growth inhibition rate (%) Redroot pigweed [13, 21]: 0%; Growth inhibition rate (%) Corn (corn (Zea mays L.) [14]; [21]): 0%; Growth inhibition rate (%) Crabgrass [15, 21]: 100%; Growth inhibition rate (%) Soybean [16, 21]: 0%; Growth inhibition rate (%) Wheat [17, 21]: 20%; Growth inhibition rate (%) Green foxtail [18, 21]: 100%; Growth inhibition rate (%) Velvetleaf [19, 21]: 0%; Growth inhibition rate (%) Rice (rice (Oryza sativa L.) [20]; [21]): 70%"
CC(=O)Oc1c(C)nn(C)c(=O)c1-c1cc(Oc2ncc(C(F)(F)F)cc2C(F)(F)F)ccc1C [Compound 2-116],100,0,100,100,100,10,99,100,90,100,0,100,0,85,100,0,60,100,0,0,
CC(=O)Oc1c(C)nn(C)c(=O)c1-c1cc(Oc2nc3ccc(C(F)(F)F)nc3o2)ccc1C [Compound 2-121],100,20,20,98,98,0,78,100,90,98,0,100,0,20,98,0,0,100,0,0,
CC(=O)Oc1c(C)nn(C)c(=O)c1-c1cc(Oc2cc(C(F)(F)F)c(C(F)(F)F)cn2)ccc1C [Compound 2-126],100,0,100,100,100,20,99,100,93,100,0,100,0,30,98,0,10,100,0,0,
CC(=O)Oc1c(C)nn(C)c(=O)c1-c1cc(Oc2ccc3cc(Br)ccc3n2)ccc1C [Compound 2-127],100,0,0,30,78,0,100,100,70,90,0,93,0,0,10,0,0,78,0,0,
